Assays:
[1] = target: T1, COX-1 (Homo sapiens, UniProt P23219); experiment: COX-1 activity in human whole blood (TXB2, calcium ionophore A23187); assay type: cell-based; settings: 24 h at 37° C., A23187 25 μM, TXB2 by EIA
T1 construct: Fresh blood from healthy volunteers; endogenous in cells; host or cells: human whole blood of healthy volunteers, stimulated with calcium ionophore A23187; TXB2 read-out
Protocol: (§1) COX-1 and COX-2 Activities in Human Whole Blood
Fresh blood from healthy volunteers who had not taken any non-steroidal anti-inflammatory drugs for at least 7 days prior to blood extraction was collected in heparinized tubes (20 units of heparin per ml). For the COX-1 activity determination, 500 μl aliquots of blood were incubated with either 5 μl vehicle (dimethylsulphoxide) or 5 μl of a test compound for 24 h at 37° C. Calcium ionophore A23187 (25 μM) was added 20 min before stopping the incubation. Plasma was separated by centrifugation (10 min at 13000 rpm) and kept at −30° C. until TXB2 levels were measured using an enzyme immunoassay kit (EIA).
The effect of the compounds was evaluated by incubating each compound at five to six different concentrations with triplicate determinations. IC50 values were obtained by non-linear regression using InPlot, GraphPad software on an IBM computer.

[2] = target: T2, COX-2 (Homo sapiens, UniProt P35354); experiment: COX-2 activity in human whole blood (PGE2, LPS induced); assay type: cell-based; settings: for IC50: LPS 10 μg/ml, 24 h at 37° C., PGE2 by EIA; for Ratio COX-1/COX-2: ratio of COX-1/COX-2 IC50 values
T2 construct: in the presence of LPS (10 μg/ml) for 24 h at 37° C. in order to induce the COX-2 expression; endogenous in cells; host or cells: human whole blood of healthy volunteers, LPS-stimulated for 24 h; PGE2 read-out
T2 sequence (P35354 18-604): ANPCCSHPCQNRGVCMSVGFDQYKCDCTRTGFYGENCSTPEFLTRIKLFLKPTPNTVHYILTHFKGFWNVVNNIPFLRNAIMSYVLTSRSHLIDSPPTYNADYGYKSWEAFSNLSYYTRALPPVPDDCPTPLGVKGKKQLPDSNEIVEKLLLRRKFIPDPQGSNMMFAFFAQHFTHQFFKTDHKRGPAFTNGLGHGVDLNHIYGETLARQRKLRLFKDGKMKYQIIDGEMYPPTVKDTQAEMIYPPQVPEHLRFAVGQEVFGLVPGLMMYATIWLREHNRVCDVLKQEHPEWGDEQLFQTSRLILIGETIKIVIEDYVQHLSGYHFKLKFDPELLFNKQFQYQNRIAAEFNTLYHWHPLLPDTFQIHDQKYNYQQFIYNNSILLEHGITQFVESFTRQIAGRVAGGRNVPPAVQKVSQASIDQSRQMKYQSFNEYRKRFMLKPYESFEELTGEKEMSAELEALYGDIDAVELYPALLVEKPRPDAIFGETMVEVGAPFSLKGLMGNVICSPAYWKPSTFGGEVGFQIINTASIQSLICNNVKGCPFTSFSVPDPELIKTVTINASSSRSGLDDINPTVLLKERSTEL
Protocol: as §1
For the COX-2 activity determination, 500 μl aliquots of blood were incubated in the presence of LPS (10 μg/ml) for 24 h at 37° C. in order to induce the COX-2 expression (Patriagnani et al., J. Pharm. Exper. Ther. 271; 1705-1712 (1994)). Plasma was separated by centrifugation (10 min at 13000 rpm) and kept at −30° C. until PGE2 levels were measured using an enzyme immunoassay kit (EIA). […] IC50 values were obtained by non-linear regression using InPlot, GraphPad software on an IBM computer.

T1 sequence (P23219 24-599): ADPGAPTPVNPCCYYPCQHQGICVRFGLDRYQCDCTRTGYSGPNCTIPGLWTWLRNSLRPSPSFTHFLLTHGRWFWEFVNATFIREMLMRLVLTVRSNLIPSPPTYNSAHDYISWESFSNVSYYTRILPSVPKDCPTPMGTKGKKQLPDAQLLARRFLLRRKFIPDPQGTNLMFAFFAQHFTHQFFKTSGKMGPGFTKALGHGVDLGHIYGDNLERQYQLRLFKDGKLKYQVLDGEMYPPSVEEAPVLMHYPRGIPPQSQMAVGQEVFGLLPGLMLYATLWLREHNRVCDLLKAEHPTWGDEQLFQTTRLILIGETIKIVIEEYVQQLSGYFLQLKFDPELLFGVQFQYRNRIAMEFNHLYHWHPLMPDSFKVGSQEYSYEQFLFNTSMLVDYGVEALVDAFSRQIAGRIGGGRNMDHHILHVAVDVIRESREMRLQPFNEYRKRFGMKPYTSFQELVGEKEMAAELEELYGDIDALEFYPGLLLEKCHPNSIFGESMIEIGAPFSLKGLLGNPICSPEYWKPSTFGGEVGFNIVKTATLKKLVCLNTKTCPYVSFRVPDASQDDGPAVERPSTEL

Structure (SMILES): Cc1cc(=O)c(Oc2ccc(Br)cc2F)c(-c2ccc([S+](C)[O-])cc2)o1 (single isomer, unassigned; enantiomer 7a) [Example 8, 3-4-Bromo-2-fluorophenoxy)-6-methyl-2-[4-methylsulfinyl)phenyl]-4H-pyran4-one-Enantiomer 7a]
- IC50 [1]: 32.1 µM
- IC50 [2]: 1580 nM
- Ratio COX-1/COX-2 [2]: 20

Structure (SMILES): Cc1cc(=O)c(Oc2ccc(Br)cc2F)c(-c2ccc([S+](C)[O-])cc2)o1 (single isomer, unassigned; enantiomer 7b) [Example 9, 3-4-Bromo-2-fluorophenoxy)-6-methyl-2-[4-(methylsulfinyl)phenyg]4H-pyran-4-one-Enantiomer 7b]
- IC50 [1]: 73.1 µM
- IC50 [2]: 170 nM
- Ratio COX-1/COX-2 [2]: 430

Structure (SMILES): Cc1cc(=O)c(Oc2ccc(F)cc2F)c(-c2ccc([S+](C)[O-])cc2)o1 (racemic) [Example 1, 3-(2,4-Difluorophenoxy)-6-methyl-2-[4-(methylsulfinyl)phenyl]-4H-pyran4-one]
- IC50 [2]: 960 nM
- Ratio COX-1/COX-2 [2]: 104

Structure (SMILES): Cc1cc(=O)c(Oc2ccc(F)cc2F)c(-c2ccc([S+](C)[O-])cc2)o1 (single isomer, unassigned; enantiomer 1b) [Example 3, 3-(2,4-Difluorophenoxy)-6-methyl-2-[4-(methylsulfinyl)phenyl]-4H-pyran4-one-Enantiomer 1b]
- IC50 [1]: 86.6 µM
- IC50 [2]: 270 nM
- Ratio COX-1/COX-2 [2]: 321

Structure (SMILES): Cc1cc(=O)c(Oc2ccc(F)cc2F)c(-c2ccc([S+](C)[O-])cc2)o1 (single isomer, unassigned; enantiomer 1a) [Example 2, 3-(2,4-Difluorophenoxy)-6-methyl-2-[4-(methylsulfinyl)phenyl]-4H-pyran-4-one-Enantiomer 1a]
- IC50 [2]: 2100 nM
- Ratio COX-1/COX-2 [2]: 48

Structure (SMILES): Cc1cc(=O)c(Oc2ccc(Br)cc2F)c(-c2ccc([S+](C)[O-])cc2)o1 (racemic) [Example 7, 3-(4-Bromo-2-fluorophenoxy)-6-methyl-2-[4-(methylsulfinyl)phenyl]-4H-pyran-4-one]
- IC50 [1]: 77 µM
- IC50 [2]: 570 nM
- Ratio COX-1/COX-2 [2]: 135

Structure (SMILES): Cc1cc(=O)c(Oc2ccc(Cl)cc2F)c(-c2ccc([S+](C)[O-])cc2)o1 (single isomer, unassigned; enantiomer 4a) [Example 5, 3-4-Chloro-2-fluorophonoxy)-6-methyl-2-[4-(methylsuffinyl)phenyl]-4H-pyran-4-one-Enantiomer 4a]
- IC50 [1]: 72.9 µM

Source: patent US7582676B2, “2-phenylpyran-4-one derivatives as selective COX-2 inhibitors” (Laboratorios Almirall, S.A., priority 2003, dated 2009)
